{"source": "patent US12458627B2", "about": "“Autotaxin inhibitors and uses thereof” (DF 2024 IP Acquisition, LLC, priority 2015, dated 2025)", "key": {"[1]": {"biological_target": "ENPP1 (Homo sapiens (Human), UniProt P22413)", "sequence (P22413 whole entry, species assumed)": "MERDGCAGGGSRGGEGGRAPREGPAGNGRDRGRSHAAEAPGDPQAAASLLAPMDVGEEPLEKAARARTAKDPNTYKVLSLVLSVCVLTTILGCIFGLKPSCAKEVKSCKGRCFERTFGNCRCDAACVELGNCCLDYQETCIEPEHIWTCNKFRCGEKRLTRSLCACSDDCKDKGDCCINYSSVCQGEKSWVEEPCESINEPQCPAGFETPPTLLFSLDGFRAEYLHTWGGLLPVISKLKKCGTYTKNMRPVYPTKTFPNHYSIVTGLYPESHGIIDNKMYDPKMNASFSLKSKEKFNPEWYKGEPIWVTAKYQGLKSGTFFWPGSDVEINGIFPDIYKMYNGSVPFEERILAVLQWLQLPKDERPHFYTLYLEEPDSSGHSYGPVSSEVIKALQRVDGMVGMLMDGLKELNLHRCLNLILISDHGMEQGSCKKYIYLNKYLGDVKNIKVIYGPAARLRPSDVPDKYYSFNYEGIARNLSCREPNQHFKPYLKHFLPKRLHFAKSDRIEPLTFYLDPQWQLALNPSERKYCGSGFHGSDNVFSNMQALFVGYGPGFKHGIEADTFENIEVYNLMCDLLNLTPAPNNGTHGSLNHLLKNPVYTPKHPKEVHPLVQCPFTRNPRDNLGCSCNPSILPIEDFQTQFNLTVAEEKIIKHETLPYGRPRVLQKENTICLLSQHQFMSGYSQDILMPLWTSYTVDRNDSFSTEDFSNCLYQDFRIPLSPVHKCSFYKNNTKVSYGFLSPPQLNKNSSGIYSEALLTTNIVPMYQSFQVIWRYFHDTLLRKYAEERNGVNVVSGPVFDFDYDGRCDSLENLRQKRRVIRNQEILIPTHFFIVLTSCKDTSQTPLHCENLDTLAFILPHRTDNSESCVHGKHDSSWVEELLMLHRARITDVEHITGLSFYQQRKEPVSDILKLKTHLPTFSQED", "test": "In vitro ENPP1 inhibition assay", "format": "biochemical"}, "[2]": {"biological_target": "ENPP3 (Homo sapiens (Human), UniProt O14638)", "sequence (O14638 whole entry, species assumed)": "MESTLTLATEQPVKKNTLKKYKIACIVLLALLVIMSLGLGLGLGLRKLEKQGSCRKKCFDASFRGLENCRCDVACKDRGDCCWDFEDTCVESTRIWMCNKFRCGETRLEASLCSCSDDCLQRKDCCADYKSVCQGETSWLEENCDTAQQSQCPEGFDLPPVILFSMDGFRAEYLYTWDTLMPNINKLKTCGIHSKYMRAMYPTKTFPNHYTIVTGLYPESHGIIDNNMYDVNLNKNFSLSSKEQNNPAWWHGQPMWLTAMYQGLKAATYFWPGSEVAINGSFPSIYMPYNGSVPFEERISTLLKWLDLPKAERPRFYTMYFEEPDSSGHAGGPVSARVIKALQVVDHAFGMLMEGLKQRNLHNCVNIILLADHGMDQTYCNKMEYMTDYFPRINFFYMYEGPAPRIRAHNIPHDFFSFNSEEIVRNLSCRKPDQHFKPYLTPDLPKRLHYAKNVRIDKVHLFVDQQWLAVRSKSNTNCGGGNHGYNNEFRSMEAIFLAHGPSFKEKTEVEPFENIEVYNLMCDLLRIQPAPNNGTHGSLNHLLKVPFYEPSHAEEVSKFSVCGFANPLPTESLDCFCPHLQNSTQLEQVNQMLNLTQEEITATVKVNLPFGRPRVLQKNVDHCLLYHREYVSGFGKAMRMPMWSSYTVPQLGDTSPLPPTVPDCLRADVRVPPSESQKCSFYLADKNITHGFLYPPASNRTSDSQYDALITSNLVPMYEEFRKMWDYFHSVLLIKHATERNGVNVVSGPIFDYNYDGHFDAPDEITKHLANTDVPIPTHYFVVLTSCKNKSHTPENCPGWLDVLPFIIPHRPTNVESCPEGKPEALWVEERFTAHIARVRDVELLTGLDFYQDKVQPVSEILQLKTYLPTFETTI", "test": "In vitro ENPP3 inhibition assay", "format": "biochemical"}, "[3]": {"biological_target": "ENPP6 (Homo sapiens (Human), UniProt Q6UWR7)", "sequence (Q6UWR7 23-440, species assumed)": "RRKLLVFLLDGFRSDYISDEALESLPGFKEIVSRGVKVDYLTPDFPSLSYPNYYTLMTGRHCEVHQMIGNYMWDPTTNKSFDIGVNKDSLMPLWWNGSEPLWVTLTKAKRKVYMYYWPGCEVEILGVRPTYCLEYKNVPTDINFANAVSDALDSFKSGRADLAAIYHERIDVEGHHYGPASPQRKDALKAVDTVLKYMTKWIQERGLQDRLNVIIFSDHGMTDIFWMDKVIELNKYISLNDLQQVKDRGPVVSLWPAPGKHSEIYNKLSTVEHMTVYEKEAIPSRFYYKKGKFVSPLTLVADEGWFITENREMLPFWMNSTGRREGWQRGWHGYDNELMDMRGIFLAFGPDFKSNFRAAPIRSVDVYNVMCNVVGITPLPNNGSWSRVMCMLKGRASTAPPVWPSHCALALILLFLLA", "test": "In vitro ENPP6 inhibition assay", "format": "biochemical"}, "[4]": {"biological_target": "ENPP7 (Homo sapiens (Human), UniProt Q6UWV6)", "sequence (Q6UWV6 22-458, species assumed)": "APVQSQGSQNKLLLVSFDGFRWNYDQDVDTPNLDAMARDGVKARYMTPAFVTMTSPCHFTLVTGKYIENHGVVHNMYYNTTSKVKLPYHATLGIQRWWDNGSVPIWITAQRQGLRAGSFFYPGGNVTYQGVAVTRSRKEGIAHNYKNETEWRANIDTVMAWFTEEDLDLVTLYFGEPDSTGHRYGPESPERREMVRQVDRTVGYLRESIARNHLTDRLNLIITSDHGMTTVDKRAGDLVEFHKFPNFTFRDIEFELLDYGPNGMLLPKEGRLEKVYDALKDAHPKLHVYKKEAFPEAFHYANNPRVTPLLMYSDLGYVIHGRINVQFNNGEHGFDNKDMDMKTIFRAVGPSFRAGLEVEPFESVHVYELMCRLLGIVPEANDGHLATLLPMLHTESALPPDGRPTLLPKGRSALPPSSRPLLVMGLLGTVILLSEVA", "test": "In vitro ENPP7 inhibition assay", "format": "biochemical"}, "[5]": {"system": "dog", "test": "Dog liver toxicity study", "format": "in vivo", "procedure": "In some embodiments, liver toxicity can be assessed in suitable in vivo assays. In some embodiments, liver toxicity is assessed by monitoring any increases in the levels of liver markers ALT, AST, AlkP and bilirubin."}, "[6]": {"system": "CDAA/HFD fed mice", "test": "Mouse CDAA/HFD model of liver fibrosis", "format": "in vivo", "procedure": "Mice are fed a choline deficient diet supplemented with 0.1% methionine and 60% kCal fat (CDAA/HFD) for 12-14 weeks. Mice receive 1, 3, 10, or 30 mpk of autotaxin inhibitor test compound or vehicle starting at the beginning of week 6 after feeding (therapeutically). The following liver enzymes are measured weekly: aspartate transaminase, alkaline phosphatase and bilirubin. At the end of the study, mice are sacrificed and the liver harvested and frozen at −80° C. for the biochemical analysis of liver fibrosis or fixed in neutral-buffered formalin for histological assessment of liver fibrosis. For the biochemical assessment of liver fibrosis, liver tissue homogenates are analyzed for collagen concentration using a hydroxyproline assay. For the histological assessment of liver fibrosis, fixed liver tissue is stained with Picrosirius Red (PSR) stain and severity of liver fibrosis scored using light microscopy. After qualitative scoring of liver fibrosis, quantitation of fibrosis was determined using whole slide images captured at 20× magnification and calculating the percentage of the liver section that was PSR-positive using Indica Labs' Halo® area quantification image analysis software."}, "[7]": {"system": "Female C57BL/6 mice, DSS-induced colitis", "test": "Mouse DSS-induced chronic colitis model", "format": "in vivo", "conditions": "compared to vehicle", "procedure": "Autotaxin inhibitors are dosed at 30, 60 or 100 mpk PO once or twice daily from Day 0 to 63. For a positive control, Cyclosporin A (CsA) is dosed at 25 mpk on Days 1-7, 22-28, and 43-49. Mouse body weight, stool consistency, bleeding and overall Disease Activity Index (DAI) is recorded daily. After 64 days, mouse colons are removed and their length and weights recorded. Colonic sections are stained with hematoxylin and eosin stain (H&E stain) and scored based on inflammatory cell infiltration and tissue damage. Colonic sections are also stained with trichrome and scored for fibrosis."}, "[8]": {"system": "Male Wistar rats, DNBS-induced colitis", "test": "Rat DNBS-induced acute colitis model", "format": "in vivo", "procedure": "Male Wistar rats weighing 150-160 g are intracolonically administered 0.5 ml of 50 mg/ml DNBS in 30% ethanol on Day 1 or vehicle control. Autotaxin inhibitors are dosed at 5 mpk in 0.5% MC once daily from Day 0 to Day 6. Sulfasalazine is dosed at 300 mpk in 0.5% CMC-Na from Day 1 to Day 7. The rats are monitored for body weight and stool consistency daily. At study termination, colon length, colon weight, ulcer area and Masson's trichrome staining are assessed."}, "[9]": {"system": "C57B16/J male mice fed a high fat diet", "test": "Glucose tolerance in mice fed a high fat diet", "format": "in vivo, mouse", "conditions": "15 mg/kg twice daily for two days prior to sampling and once on the day of sampling", "procedure": "C57B16/J male mice are fed a normal diet until 6-10 weeks of age. […] For determination of blood glucose, mice are administered test compound orally in 0.5% methocel once or twice daily for several days prior to the glucose challenge. On the day of the glucose tolerance test (GTT) mice are fasted for 6-8 hours and a last dose of test compound administered orally 1-3 hours before the intraperitoneal (i.p.) injection of 1 g/kg D-glucose (Sigma). Blood from the tail vein is sampled before the glucose load (baseline glucose) and every 15-30 min over the next 120 min after the glucose challenge to monitor blood glucose concentration. Blood glucose is quantified using a glucose meter (Accu-Chek, Roche Diagnostics or AlphaTRAK, Abbott Animal Health) and plotted vs. time. Total blood glucose area under the curve (AUC) after the i.p. glucose challenge is calculated from the time plot using GraphPad Prism6."}, "[10]": {"system": "MDA-MB-435S human melanoma line", "test": "cells", "conditions": "read-out: IC50 cell migration", "description": "The day before the assay, cells are serum-starved overnight in media containing 0.1-0.2% fatty-acid-free BSA. On the day of the assay, the conditioned media is removed from the cells, centrifuged for clarification and set aside. The cells are then harvested by scraping, counted, and pelleted by centrifugation. […] The assays are performed in duplicate using the Neuroprobe 96-well chemotaxis system with 8 m pore size and fibronectin-coated filters. 152 μL cells are added to 8 μL test autotaxin inhibitor compound and incubated for 15 min at 37° C. […] The filters are incubated at 37° C. for 1-24 hours and non-migrated cells removed from the top of the filter by rinsing with PBS and scraping. The filter is air dried then stained before reading the absorbance at 580 nm."}, "[11]": {"biological_target": "human autotaxin (Homo sapiens (Human), UniProt Q13822)", "test": "Human autotaxin assay", "format": "biochemical", "conditions": "concentrated conditioned media from Hep3B cells; LPC substrate, choline release"}, "[12]": {"conditions": "5 mpk once daily, DNBS acute colitis"}, "[13]": {"conditions": "5 mpk once daily, similar to sulfasalazine"}}}
{"smiles": "CCCn1cc(-n2c(Cl)c(Sc3cccc(C(=O)O)c3F)c3ccc(Cl)c(F)c32)cn1", "note": "[Compound B, 3-((2,6-dichloro-7-fluoro-1-(1-propyl-1H-pyrazol-4-yl)-1H-indol-3-yl)thio)-2-fluorobenzoic acid]", "values": [{"measurement": "IC50", "setting": "[1]", "result": "> 10000", "unit": "nM"}, {"measurement": "IC50", "setting": "[2]", "result": "> 10000", "unit": "nM"}, {"measurement": "IC50", "setting": "[3]", "result": "> 10000", "unit": "nM"}, {"measurement": "IC50", "setting": "[4]", "result": "> 10000", "unit": "nM"}, {"measurement": "liver markers (ALT, AST, AlkP and bilirubin)", "setting": "[5]; dog liver toxicity study", "result": "did not exhibit the same effects"}, {"measurement": "increases in liver markers ALT, AST, AlkP and bilirubin", "setting": "[5]; dosed at 100 mpk for 5 days", "result": "no increases"}, {"measurement": "decrease in % PSR positive area", "setting": "[6]; 10 mpk, liver, CDAA/HFD mice", "result": "approximately 35%"}, {"measurement": "liver fibrosis", "setting": "[6]; 10 mpk, therapeutic dosing, CDAA/HFD mice", "result": "significantly reduced"}, {"measurement": "hepatic fibrosis (FIG. 4, percent PSR positive area)", "setting": "[6]; dosed therapeutically, mouse CDAA/HFD model", "result": "attenuate"}, {"measurement": "colon length", "setting": "[7]", "result": "significant increase"}, {"measurement": "colon length, longer than vehicle", "setting": "[7]", "result": "at least 30%"}, {"measurement": "effect on colitis by reducing ulcer area", "setting": "[8]; 5 mpk once daily Day 0 to Day 6, DNBS rats", "result": "positive effect"}, {"measurement": "body weight loss", "setting": "[8]; [12]", "result": "no significant effect"}, {"measurement": "stool consistency", "setting": "[8]; [12]", "result": "no significant effect"}, {"measurement": "colon weight", "setting": "[8]; [13]", "result": "reduced"}, {"measurement": "ulcer area", "setting": "[8]; [13]", "result": "reduced"}, {"measurement": "baseline glucose", "setting": "[9]", "result": "decreased"}, {"measurement": "total blood glucose AUC", "setting": "[9]; i.p. glucose challenge", "result": "decreased"}, {"measurement": "IC50", "setting": "[10]", "result": 15, "unit": "nM"}]}
{"smiles": "O=C1C2Cc3c(n(Cc4ccc(F)cc4)c4ccccc34)CN2C(=O)N1CCC1CCNCC1", "note": "(centres unmarked) [Compound C, 4-(2-(6-(4-fluorobenzyl)-1,3-dioxo-5,6,11a-tetrahydro-1H-imidazo[1′,5′:1,6]pyrido[3,4-b]indol-2(3H, 5H, 6H)-yl)ethyl)piperidin-1-ium chloride]", "values": [{"measurement": "IC50", "setting": "[11]", "result": "< 500", "unit": "nM"}]}
{"smiles": "O=C1C2Cc3c(n(Cc4ccc(F)cc4)c4ccccc34)CN2C(=O)N1CCN1CCNCC1", "note": "(centres unmarked) [Compound D, 4-(2-(6-(4-fluorobenzyl)-1,3-dioxo-5,6,11a-tetrahydro-1H-imidazo[1′,5′:1,6]pyrido[3,4-b]indol-2(3H, 5H, 6H)-yl)ethyl)piperazin-1-ium chloride]", "values": [{"measurement": "IC50", "setting": "[11]", "result": "< 500", "unit": "nM"}]}
{"smiles": "CCn1cc(-n2c(Cl)c(Sc3cccc(C(=O)O)c3F)c3ccc(Cl)c(F)c32)cn1", "note": "[Compound E, 3-((2,6-dichloro-1-(1-ethyl-1H-pyrazol-4-yl)-7-fluoro-1H-indol-3-yl)thio)-2-fluorobenzoic acid]", "values": [{"measurement": "IC50", "setting": "[11]", "result": "< 500", "unit": "nM"}]}
{"smiles": "CCCn1cc(-n2c(Cl)c(Sc3cccc(C(=O)O)n3)c3ccc(Cl)c(F)c32)cn1", "note": "[Compound F, 6-((2,6-dichloro-7-fluoro-1-(1-propyl-1H-pyrazol-4-yl)-1H-indol-3-yl)thio)picolinic acid]", "values": [{"measurement": "IC50", "setting": "[11]", "result": "< 500", "unit": "nM"}]}
{"smiles": "CCn1cc(-n2c(Cl)c(Sc3cccc(C(=O)O)n3)c3ccc(Cl)c(F)c32)cn1", "note": "[Compound G, 6-((2,6-dichloro-1-(1-ethyl-1H-pyrazol-4-yl)-7-fluoro-1H-indol-3-yl)thio)picolinic acid]", "values": [{"measurement": "IC50", "setting": "[11]", "result": "< 500", "unit": "nM"}]}
{"smiles": "CCCn1cc(-n2c(Cl)c(Sc3cccc(CC(=O)O)c3F)c3ccc(Cl)c(F)c32)cn1", "note": "[Compound H, 2-(3-((2,6-dichloro-7-fluoro-1-(1-propyl-1H-pyrazol-4-yl)-1H-indol-3-yl)thio)-2-fluorophenyl)acetic acid]", "values": [{"measurement": "IC50", "setting": "[11]", "result": "< 500", "unit": "nM"}]}
{"smiles": "CCn1cc(-n2c(Cl)c(Sc3cccc(CC(=O)O)c3F)c3ccc(Cl)c(F)c32)cn1", "note": "[Compound I, 2-(3-((2,6-dichloro-1-(1-ethyl-1H-pyrazol-4-yl)-7-fluoro-1H-indol-3-yl)thio)-2-fluorophenyl)acetic acid]", "values": [{"measurement": "IC50", "setting": "[11]", "result": "< 500", "unit": "nM"}]}
